Assays:
[1] = target: T1, Prostaglandin G/H synthase 1 (Ovis aries, UniProt P05979); assay: Inhibition of ovine COX1 using arachidonic acid as substrate incubated for 5 mins followed by substrate addition measured after 2 mins by enzyme immunoassay
T1 sequence (P05979 whole entry): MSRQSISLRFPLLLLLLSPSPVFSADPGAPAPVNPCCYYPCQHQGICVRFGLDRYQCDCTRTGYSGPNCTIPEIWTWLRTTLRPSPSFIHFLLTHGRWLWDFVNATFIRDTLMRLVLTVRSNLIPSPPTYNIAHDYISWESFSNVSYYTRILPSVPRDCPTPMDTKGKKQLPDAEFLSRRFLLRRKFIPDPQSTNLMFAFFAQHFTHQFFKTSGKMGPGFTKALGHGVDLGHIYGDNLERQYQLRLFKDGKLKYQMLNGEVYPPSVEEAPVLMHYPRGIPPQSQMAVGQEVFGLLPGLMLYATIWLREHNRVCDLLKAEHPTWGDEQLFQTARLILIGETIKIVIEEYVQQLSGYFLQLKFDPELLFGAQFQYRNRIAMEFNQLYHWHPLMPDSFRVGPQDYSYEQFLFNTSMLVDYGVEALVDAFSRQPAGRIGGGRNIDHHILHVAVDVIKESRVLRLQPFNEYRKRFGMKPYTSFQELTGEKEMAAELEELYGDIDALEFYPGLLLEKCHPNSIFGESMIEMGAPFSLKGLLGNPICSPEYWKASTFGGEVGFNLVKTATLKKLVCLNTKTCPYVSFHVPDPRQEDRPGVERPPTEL

Rattus norvegicus [2] = assay: Antiinflammatory activity in gamma-irradiated carrageenan-induced Wistar rat paw edema model assessed as paw oedema at 100 mg/kg, ip administered 1 hr prior to carrageenan challenge measured after 3 hrs (reference value: 89.5 +/- 1.47%); assay type: functional
Rattus norvegicus [3] = assay: Analgesic activity in gamma-irradiated carrageenan-induced Wistar rat hyperalgesia model assessed as nociceptive threshold at 100 mg/kg, ip administered 1 hr prior to carrageenan challenge measured after 3 hrs by analgesimetric analysis (reference value: 37.60 +/- 0.79 g); assay type: functional
Rattus norvegicus [4] = assay: Ulcerogenic activity in Wistar rat assessed as appearance of ulcers and erosions in stomach by measuring ulcer index at 100 mg/kg, po measured after 4 hrs; assay type: toxicity, organism-based; conditions: in vivo
[5] = Acute toxicity in Swiss albino mouse assessed as mortality administered ip measured for 24 hrs; assay type: organism-based; conditions: in vivo, read-out: ALD50

Structure (SMILES) | IC50 [1] [µM] | Activity (Rattus norvegicus [2]) [%] | Activity (Rattus norvegicus [3]) [g] | UI (Rattus norvegicus [4]) | LD50 at 24 h [5] [mg/kg]
Nc1nnc(S)s1 | > 50 | – | – | – | –
CN(C)c1ccc(C2C=C(c3ccccc3)N3NC(=S)SC3=N2)cc1 (stereo not given) | > 50 | – | – | – | –
N#CC1=C(N)N=C2SC(=S)NN2C1c1ccccc1 (stereo not given) | > 50 | – | – | – | –
O=S(=O)(Nc1nccs1)c1ccc(NCNc2n[nH]c(=S)s2)cc1 | > 50 | 24.6 | 90.21 | 0 | > 1000
N=c1cc(Nc2ccc(S(=O)(=O)Nc3ccccn3)cc2)n2[nH]c(=S)sc2n1 | > 50 | 24.21 | 85.8 | 0.05 | > 800
S=C1NN2C(c3ccccc3)=CC(c3ccc(Cl)cc3)N=C2S1 (stereo not given) | 30.7 | 43.1 | 78.51 | 0.6 | –
N=c1cc(Nc2ccc(S(=O)(=O)Nc3nccs3)cc2)n2[nH]c(=S)sc2n1 | > 50 | 25.13 | 76.51 | 0.05 | > 1000
S=C1NN2C(c3ccccc3)=CC(c3ccc(Br)cc3)N=C2S1 (stereo not given) | > 50 | – | – | – | –
Cc1ccc(-c2cc(C(F)(F)F)nn2-c2ccc(S(N)(=O)=O)cc2)cc1 [CELECOXIB] | – | 18.61 | 90.23 | 0 | –
Cc1ccnc(NS(=O)(=O)c2ccc(NCNc3n[nH]c(=S)s3)cc2)n1 | > 50 | 25.31 | 80.78 | 0.05 | > 800
O=C1CSC(c2ccc(Br)cc2)N1c1n[nH]c(=S)s1 (stereo not given) | 1.32 | 25.07 | 51.51 | 0.45 | > 1000
N#CC1=C(N)N=C2SC(=S)NN2C1c1ccc([N+](=O)[O-])cc1 (stereo not given) | > 50 | – | – | – | –
S=C1NN2C(c3ccccc3)=CC(c3ccccc3Cl)N=C2S1 (stereo not given) | > 50 | – | – | – | –
COc1ccc(/C=N/C2=NN3C(=O)CSC3S2)cc1 (stereo not given) | > 50 | 15.47 | 54.13 | 0.05 | > 800

Now from value to compound, other results behind:

IC50 [1] [µM] | Structure (SMILES) | Activity (Rattus norvegicus [2]) [%] | Activity (Rattus norvegicus [3]) [g] | UI (Rattus norvegicus [4]) | LD50 at 24 h [5] [mg/kg]
> 50 | S=c1[nH]nc(/N=C/c2ccc(Cl)cc2)s1 | – | – | – | –
> 50 | N#CC1=C(N)N=C2SC(=S)NN2C1c1ccc(Br)cc1 (stereo not given) | 31.3 | 60.51 | 0.05 | –
> 50 | CN(C)c1ccc(C2C(C#N)=C(N)N=C3SC(=S)NN32)cc1 (stereo not given) | 43.7 | 53.88 | 0 | –
> 50 | O=C1CSC(c2ccc(Cl)cc2)N1c1n[nH]c(=S)s1 (stereo not given) | – | – | – | –
> 50 | N#CC1=C(N)N=C2SC(=S)NN2C1c1ccc(Cl)cc1 (stereo not given) | – | – | – | –
> 50 | N=c1cc(Nc2ccc(S(N)(=O)=O)cc2)n2[nH]c(=S)sc2n1 | – | – | – | –
> 50 | COc1ccc(C2C(C#N)=C(N)N=C3SC(=S)NN32)cc1 (stereo not given) | – | – | – | –
> 50 | NS(=O)(=O)c1ccc(NCNc2n[nH]c(=S)s2)cc1 | – | – | – | –
> 50 | O=C1CSC2SC(/N=C/c3ccc(Br)cc3)=NN12 (stereo not given) | 50.49 | 44.91 | 0 | –
41.7 | COc1ccc(/C=N/c2n[nH]c(=S)s2)cc1 | 41.53 | 56.3 | 0.38 | –
24 | COc1ccc(C2SCC(=O)N2c2n[nH]c(=S)s2)cc1 (stereo not given) | 31.5 | 62.37 | 0.26 | –
> 50 | Cc1ccc(/C=N/C2=NN3C(=O)CSC3S2)cc1 (stereo not given) | – | – | – | –
> 50 | O=C1CSC2SC(/N=C/c3ccc(Cl)cc3)=NN12 (stereo not given) | – | – | – | –
> 50 | Cc1ccc(/C=N/c2n[nH]c(=S)s2)cc1 | – | – | – | –
1.34 | COc1ccc(C2C=C(c3ccccc3)N3NC(=S)SC3=N2)cc1 (stereo not given) | 43.6 | 66.6 | 0.64 | –
> 50 | S=c1[nH]nc(/N=C/c2ccc(Br)cc2)s1 | 45.62 | 95.6 | 0 | –
> 50 | Cc1ccc(C2SCC(=O)N2c2n[nH]c(=S)s2)cc1 (stereo not given) | – | – | – | –
> 50 | Cc1cc(C)nc(NS(=O)(=O)c2ccc(NCNc3n[nH]c(=S)s3)cc2)n1 | – | – | – | –
> 50 | O=S(=O)(Nc1ncccn1)c1ccc(NCNc2n[nH]c(=S)s2)cc1 | – | – | – | –
> 50 | O=S(=O)(Nc1ccccn1)c1ccc(NCNc2n[nH]c(=S)s2)cc1 | – | – | – | –
> 50 | N=c1cc(Nc2ccc(S(=O)(=O)Nc3ncccn3)cc2)n2[nH]c(=S)sc2n1 | – | – | – | –
